Like-named read-outs stand apart in the source and are kept apart here.
Key:
[1] = tested on: FADD-deficient Jurkat cells; assay: Cellular necroptosis assay (human TNFα-induced necrosis, CellTiter-Glo); type: cell-based; conditions: Homo sapiens, Jurkat, 48 h, TNFα 10 ng/mL, read-out: Cell IC50
[2] = male, Sprague-Dawley Crl:CD(SD), in vivo, iv
Protocol: (§4) The protein binding in plasma was determined using a Rapid Equilibrium Dialysis Device (Thermo Scientific RED Device) or 96-well dialyzer apparatus (HTDialysis LLC). […] If required, plasma samples were pre-incubated (2 hours at 37° C.) with diisopropyl fluorophosphate (DFP) at the final concentration of 100 μM to prevent compound degradation due to amide hydrolysis. Appropriate volumes of spiked samples along with blank phosphate buffer were added to either device and incubated at 37° C. for a total of 5 hours with agitation at 500 rpm. Following incubation, an equal aliquot of dialysed matrix (plasma or buffer) is added to an equal volume of the opposite blank matrix such that the volume of buffer to plasma are equal. Mixed matrix samples were extracted by protein precipitation using acetonitrile containing the appropriate IS. Samples were then centrifuged for 10 min at 2800 rpm. Supernatants were collected and diluted and then injected on to an HPLC-MS/MS or UPLC-MS/MS system. Samples were analyzed by monitoring the appropriate parent/daughter ion transitions for the test and control compounds. The peak area ratios were used to measure test item concentrations. The fraction unbound (Afu) was determined as the ratio of the peak area ratio in buffer divided by the peak area ratio in plasma.
(§5) The PK properties of test articles were determined in male Sprague-Dawley Crl:CD(SD) rats, male Beagle dogs and male cynomolgus monkeys. Studies were conducted to the highest standards of animal welfare in accordance with national legislation and under approval of the internal animal care and use committees.
(§6) Compounds were administered by IV bolus to animals following an overnight fast. […] The formulations were administered at dose volumes ranging from 0.5-2 mL/kg. The IV dose ranged from 0.5-1 mg/kg.
(§7) Following dose administration, 8-9 serial blood samples were collected over 24 hours. Samples were mixed with anticoagulant and placed on wet ice prior to processing. Plasma was harvested following centrifugation, extracted using protein precipitation with acetonitrile containing IS. The processed supernatant was analyzed using UPLC or LC-MS/MS using specific parent/daughter ion pairs for the test article and IS. Plasma concentrations were determined using a calibration curve prepared using known concentrations of analyte. Pharmacokinetic parameters utilizing measured concentrations were calculated using Phoenix WinNonlin. The unbound plasma clearance was calculated as the ratio of the total body clearance divided by the fraction unbound in plasma.

[3] = male, Beagle, in vivo, iv
Protocol: as §4
The PK properties of test articles were determined in male Sprague-Dawley Crl:CD(SD) rats, male Beagle dogs and male cynomolgus monkeys. […]
Following dose administration, 8-9 serial blood samples were collected over 24 hours. […] The processed supernatant was analyzed using UPLC or LC-MS/MS using specific parent/daughter ion pairs for the test article and IS. Plasma concentrations were determined using a calibration curve prepared using known concentrations of analyte. Pharmacokinetic parameters utilizing measured concentrations were calculated using Phoenix WinNonlin. The unbound plasma clearance was calculated as the ratio of the total body clearance divided by the fraction unbound in plasma.

TNF/zVAD = conditions: 30 mg/kg, from Table 2 of WO 2014/125444; cited from earlier work
[4] = tested on: human cryopreserved hepatocytes; assay: Metabolic stability (hepatocytes); conditions: for clearance as % of liver blood flow: corresponding to human CLhep; for Human hepatocyte CLhep Avg: human cryopreserved hepatocytes
Protocol: (§8) The metabolic stability of compounds was evaluated in human cryopreserved hepatocytes (BioreclamationlVT, NY, USA) in duplicate. Test articles (or controls) were added to a 24-well incubation plate (Becton Dickinson Labware, USA) containing 0.5×10^6 hepatocytes/mL in suspension. The plate was held at 37° C. and agitated with constant orbital shaking (orbital speed at 350 rpm). At each time point (0, 5, 10, 15, 20, 30, 45, 60, 90, 120, 150 and 180 min) a Tecan Evo robot aspirated 50 μL of the incubation mixture and 100 μL of acetonitrile containing internal standard to quench the reaction. […] Samples were centrifuged (3000 rpm for 10 minutes) and the plate sealed prior to injection onto an LC-MS/MS system.
(§9) The appropriate parent/daughter ions were monitored for the test article and IS with the LC-MS/MS system. The intrinsic clearance (Clint; expressed μL/min/million cells) was determined from the first order elimination constant (k, min^−1) of test article decay and the volume of the incubation. […] The intrinsic organ CL was then converted to the hepatic clearance (CLhep) using the well-stirred model as shown below, where Qh is human hepatic blood flow.
(§10) Hepatic clearance is expressed as mL/min/kg. The hepatic clearance relates to the flow of blood through the liver that is completely cleared of the compound.

MDCKII-MDR1 cell line = assay: MDCKII-MDR1 permeability, efflux ratio; type: in vitro ADME; conditions: MDCKII-MDR1, 3 μM, 90 min
Protocol: (§1) The blood brain barrier (BBB) separates circulating blood from the extracellular fluid of the central nervous system (CNS). The passive membrane permeability (Papp) and the P-gp (P-glycoprotein) substrate efflux potential were determined using the MDCKII-MDR1 cell line as an in vitro model of the effective permeability of a compound through the BBB. A bidirectional assay (Apical to Basolateral (A→B) and Basolateral to Apical (B→A)), in the absence and in the presence of GF120918 (a P-gp inhibitor) was conducted using pre-plated MDCKII-MDR1 cells (Corning HTS Transwell-96) obtained from SOLVO Biotechnology. The assay was run at 3 μM for 90 min (minutes) in triplicate using a HBSS+12.5 mM HEPES pH 7.4 transport buffer. Following incubation of samples from donor and receiver, wells were removed and measured by LC-MS/MS. Samples were extracted by protein precipitation with acetonitrile containing an appropriate internal standard (IS) having a known mass and molecular weight. The precipitate was centrifuged for 10 min at 3000 rpm (revolutions per minute). The supernatants were then collected, diluted if necessary, and injected on to the LC-MS/MS system. […] Papp (apparent permeability expressed in nm/sec [nanometer/second]) values were calculated according to the following equation: […]
(§2) Where dQ/dt is the permeability rate, C0 is the initial concentration in the donor solution (expressed as IS ratio), A and B are the surface areas of the filter (the surface area of the cell monolayer).
(§3) Monolayer efflux ratios (ER) were derived using the following equation: […]

GST-hRIPK1 (8-327) = GST-hRIPK1 (8-327) (Homo sapiens (Human), UniProt Q13546); assay: Fluorescent Polarization Binding (FP Binding) assay
GST-hRIPK1 (8-327), sequence (Q13546 8-327): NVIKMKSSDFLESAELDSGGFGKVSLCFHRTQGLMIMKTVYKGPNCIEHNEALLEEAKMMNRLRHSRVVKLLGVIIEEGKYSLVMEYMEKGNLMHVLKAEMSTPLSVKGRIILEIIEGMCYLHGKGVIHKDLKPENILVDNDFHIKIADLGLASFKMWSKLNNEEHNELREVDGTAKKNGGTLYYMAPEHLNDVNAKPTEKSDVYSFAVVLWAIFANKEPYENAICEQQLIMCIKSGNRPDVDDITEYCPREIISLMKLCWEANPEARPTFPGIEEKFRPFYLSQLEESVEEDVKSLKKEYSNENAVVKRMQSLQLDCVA

[5] = tested on: human cryopreserved hepatocytes
Protocol: as §8, §9, §10

[6] = male, cynomolgus monkey, in vivo, iv
Protocol: as §4, §5, §6, §7

P-gp (MDR1) = assay: MDCKII-MDR1 permeability, efflux ratio; type: in vitro ADME; conditions: dog, MDCK-MDR1, pH 7.4, MDCKII-MDR1, 3 μM, read-out: ER MDR1
Protocol: as §1, §2, §3

Structure (SMILES) | Rat unbound CL [2] [mL/min/kg] | Human hepatocyte CLhep Avg [4] [mL/min/kg] | IC50 (GST-hRIPK1 (8-327)) [nM] | efflux ratio at 90 min, 3 μM (P-gp (MDR1)) | also measured
CN1C(=O)[C@@H](NC(=O)c2nnc(Cc3ccccc3)[nH]2)COc2ccccc21 [A, reference compound] | 77 | 6.8 |  |  | IC50 [1]: 0.5 nM; Dog unbound CL [3]: 240 mL/min/kg; inhibition of temperature loss (TNF/zVAD): 93%; clearance as % of liver blood flow [4]: approximately 32%
CN1C(=O)[C@@H](NC(=O)c2nnc(Cc3ccccc3)o2)COc2ccccc21 [B, reference compound] |  | 14 |  |  | IC50 [1]: 0.3 nM; ER MDR1 (MDCKII-MDR1 cell line): 1.0
CN1C(=O)[C@@H](NC(=O)c2cc(C3(c4ccccc4)CC3)on2)COc2ccccc21 [Example 8, (S)—N-(5-methyl-4-oxo-2,3,4,5-tetrahydrobenzo[b][1,4]oxazepin-3-yl)-5-(1-phenylcyclopropyl)isoxazole-3-carboxamide] | 3700 |  | 0.1 to 1000 |  | Human hepatocyte CLhep Avg [5]: 19 mL/min/kg
CN1C(=O)[C@@H](NC(=O)c2cc(Cc3ccccc3)on2)CC2(CC2)c2ccccc21 [Example 9, (S)-5-benzyl-N-(1-methyl-2-oxo-1,2,3,4-tetrahydrospiro[benzo[b]azepine-5,1′-cyclopropan]-3-yl)isoxazole-3-carboxamide] |  |  | 0.1 to 1000 |  | Human hepatocyte CLhep Avg [5]: 19 mL/min/kg
CN1C(=O)[C@@H](NC(=O)c2nnc(Cc3ccccc3)[nH]2)COc2cccnc21 [Example 42, (S)-5-benzyl-N-(5-methyl-4-oxo-2,3,4,5-tetrahydropyrido[3,2-b][1,4]oxazepin-3-yl)-4H-1,2,4-triazole-3-carboxamide] | 22 | 0.8 |  |  | Dog unbound CL [3]: 64 mL/min/kg; Cyno unbound CL [6]: 42 mL/min/kg; clearance as % of liver blood flow [4]: less than 4%
CN1C(=O)[C@@H](NC(=O)c2nnc(Cc3ccccc3)[nH]2)[C@H]2C[C@H]2c2ccccc21 [Example 46A, 5-benzyl-N-((2S)-4-methyl-3-oxo-1,1a,2,3,4,8b-hexahydrobenzo[b]cyclopropa[d]azepin-2-yl)-4H-1,2,4-triazole-3-carboxamide] |  | 16 | 0.1 to 1000 | 16 | 
CN1C(=O)[C@@H](NC(=O)c2nnc(C3(c4ccccc4)CC3)o2)COc2cccnc21 [Example 66, (S)—N-(5-methyl-4-oxo-2,3,4,5-tetrahydropyrido[3,2-b][1,4]oxazepin-3-yl)-5-(1-phenylcyclopropyl)-1,3,4-oxadiazole-2-carboxamide] |  | 6.3 |  |  | Dog unbound CL [3]: 36 mL/min/kg
CN1C(=O)[C@@H](NC(=O)c2nnc(Cc3ccccc3)[nH]2)[C@H]2C[C@H]2c2nccnc21 [Example 119B, 5-benzyl-N-((7S,7aS,8aR)-5-methyl-6-oxo-5,6,7,7a,8,8a-hexahydrocyclopropa[d]pyrazino[2,3-b]azepin-7-yl)-4H-1,2,4-triazole-3-carboxamide] | 20 | 0 | 0.1 to 1000 | 18 | Cyno unbound CL [6]: 26 mL/min/kg
CN1C(=O)[C@@H](NC(=O)c2ncn(Cc3cccc(C#N)c3)n2)COc2cccnc21 [Example 171, (S)-1-(3-cyanobenzyl)-N-(5-methyl-4-oxo-2,3,4,5-tetrahydropyrido[3,2-b][1,4]oxazepin-3-yl)-1H-1,2,4-triazole-3-carboxamide] | 32 |  |  |  | Human hepatocyte CLhep Avg [5]: 5.1 mL/min/kg
CN1C(=O)[C@@H](NC(=O)c2nnc(Cc3ccccc3)o2)[C@H]2C[C@H]2c2nccnc21 [Example 177A, 5-benzyl-N-((7S,7aS,8aR)-5-methyl-6-oxo-5,6,7,7a,8,8a-hexahydrocyclopropa[d]pyrazino[2,3-b]azepin-7-yl)-1,3,4-oxadiazole-2-carboxamide] | 55 | 4.2 | 0.1 to 1000 | 1.4 | Cyno unbound CL [6]: 58 mL/min/kg
[2H]C([2H])([2H])N1C(=O)[C@@H](NC(=O)c2nn(Cc3ccccc3)cc2F)[C@H]2C[C@H]2c2cc(S(C)(=O)=O)ccc21 [Example 183B, 1-benzyl-4-fluoro-N-((1aS,2S,8bR)-4-trideuteriomethyl-7-(methylsulfonyl)-3-oxo-1,1a,2,3,4,8b-hexahydrobenzo[b]cyclopropa[d]azepin-2-yl)-1H-pyrazole-3-carboxamide] |  | 5.3 | 0.1 to 1000 | 36 | 

From patent US10604535B2, “Compounds, compositions and methods” (Denali Therapeutics Inc., priority 2016, dated 2020)
